Experimental data taken from patent US11852970B2, “Material for lithography, production method therefor, composition for lithography, pattern formation method, compound, resin, and method for purifying the compound or the resin” (Mitsubishi Gas Chemical Company, Inc., priority 2015, dated 2023).

assay: Safe solvent solubility test of compound; assay type: physicochemical; conditions: amount of dissolution in propylene glycol monomethyl ether acetate at 23° C., ultrasonic 30 minutes, visual
Procedure: The solubility of the compound in propylene glycol monomethyl ether acetate was measured as the solubility of the compound in a safe solvent. The solubility was evaluated according to the following criteria utilizing the amount of dissolution in propylene glycol monomethyl ether acetate. The amount of dissolution was measured at 23° C. by precisely weighing the compound into a test tube, adding propylene glycol monomethyl ether acetate so as to attain a predetermined concentration, applying ultrasonic waves for 30 minutes in an ultrasonic cleaner, then visually observing the subsequent state of the fluid, and conducting evaluation on the basis of the concentration of the amount of complete dissolution. • A: 5.0% by mass≤Amount of dissolution • B: 3.0% by mass≤Amount of dissolution<5.0% by mass • C: Amount of dissolution<3.0% by mass (2) Storage Stability and Thin Film Formability of Resist Composition

Compound | Safe solvent solubility test
CC1(OC(=O)COc2ccc([Te]c3ccc(OCC(=O)OC4(C)C5CC6CC(C5)CC4C6)c(-c4ccccc4)c3)cc2-c2ccccc2)C2CC3CC(C2)CC1C3 (stereo not drawn) [Ph-TDP-ADBAC] | A (5.0% by mass≤Amount of dissolution)
Oc1ccc([Te](Cl)(Cl)c2ccc(O)cc2)cc1 [BHPT, bis(4-hydroxyphenyl)tellurium dichloride] | A (5.0% by mass≤Amount of dissolution)
CC(C)(C)OC(=O)Oc1ccc([Te](Cl)(Cl)c2ccc(OC(=O)OC(C)(C)C)cc2)cc1 [BHPT-BOC, bis(tert-butoxycarboxyphenyl)tellurium dichloride] | A (5.0% by mass≤Amount of dissolution)
CC(C)(C)OC(=O)COc1ccc([Te]c2ccc(OCC(=O)OC(C)(C)C)cc2)cc1 [Ph-TDP-BOC] | A (5.0% by mass≤Amount of dissolution)
CC1(OC(=O)COc2ccc([Te](Cl)(Cl)c3ccc(OCC(=O)OC4(C)C5CC6CC(C5)CC4C6)cc3)cc2)C2CC3CC(C2)CC1C3 (stereo not drawn) [BHPT-ADBAC, bis(4-(2-methyl-2-adamantyloxycarbonylmethoxy)phenyl)tellurium dichloride] | A (5.0% by mass≤Amount of dissolution)
CCOC(C)Oc1ccc([Te](Cl)(Cl)c2ccc(OC(C)OCC)cc2)cc1 (stereo not drawn) [BHPT-EE, bis(ethoxyethylphenyl)tellurium dichloride] | A (5.0% by mass≤Amount of dissolution)
Oc1ccc([Te]c2ccc(O)cc2)cc1 [TDP, 4,4′-telluriumdiphenol] | A (5.0% by mass≤Amount of dissolution)
Oc1ccc([Te](Cl)(Cl)c2ccc(O)c(-c3ccccc3)c2)cc1-c1ccccc1 [Ph-BHPT, bis(3-phenyl-4-hydroxyphenyl)tellurium dichloride] | A (5.0% by mass≤Amount of dissolution)
CCOC(C)Oc1ccc([Te](Cl)(Cl)c2ccc(OC(C)OCC)c(-c3ccccc3)c2)cc1-c1ccccc1 (stereo not drawn) [Ph-TDP-EE] | A (5.0% by mass≤Amount of dissolution)
CC1(OC(=O)COc2ccc([Te]c3ccc(OCC(=O)OC4(C)C5CC6CC(C5)CC4C6)cc3)cc2)C2CC3CC(C2)CC1C3 (stereo not drawn) [TDP-ADBAC] | A (5.0% by mass≤Amount of dissolution)
Oc1ccc([Te]c2ccc(O)c(-c3ccccc3)c2)cc1-c1ccccc1 [Ph-TDP, bis(3-phenyl-4-hydroxyphenyl)tellurium] | A (5.0% by mass≤Amount of dissolution)
CC1(OC(=O)COc2ccc([Te](Cl)(Cl)c3ccc(OCC(=O)OC4(C)C5CC6CC(C5)CC4C6)c(-c4ccccc4)c3)cc2-c2ccccc2)C2CC3CC(C2)CC1C3 (stereo not drawn) [Ph-BHPT-ADBAC] | A (5.0% by mass≤Amount of dissolution)
